Tests used:
Ralstonia solanacearum [1] = test: Antibacterial activity against Ralstonia solanacearum assessed as growth inhibition at […] after 48 hrs by turbidimeter test; assay type: functional; conditions: for inhibition of growth: read-out: GI
Ralstonia solanacearum [2] = test: Antibacterial activity against Ralstonia solanacearum assessed as growth inhibition at […] after 48 hrs by turbidimeter test; assay type: functional; conditions: for inhibition of growth: read-out: GI

Molecule	growth inhibition (GI) (Ralstonia solanacearum [1])	growth inhibition (GI) (Ralstonia solanacearum [2])	inhibition of growth (Ralstonia solanacearum [1])	inhibition of growth (Ralstonia solanacearum [2])
COPPER HYDROXIDE	100%	100%		
COc1ccc(/C=N\NC(=O)c2cc(Cl)cc(C)c2NC(=O)c2cccnc2Cl)c(OC)c1			36.1%	0%
Cc1cc(Cl)cc(C(=O)N/N=C\c2ccc(Cl)c(Cl)c2)c1NC(=O)c1cccnc1Cl			35%	12.4%
COc1cccc(/C=N\NC(=O)c2cc(Cl)cc(C)c2NC(=O)c2cccnc2Cl)c1OC			40.3%	0%
CC/C=N\NC(=O)c1cc(Cl)cc(C)c1NC(=O)c1cccnc1Cl			5%	0%
Cc1cc(Cl)cc(C(=O)N/N=C\c2ccc(C(C)(C)C)cc2)c1NC(=O)c1cccnc1Cl			39%	18.2%
COc1ccc(OC)c(/C=N\NC(=O)c2cc(Cl)cc(C)c2NC(=O)c2cccnc2Cl)c1			25.2%	1.9%
Cc1cc(Cl)cc(C(=O)N/N=C\c2cccc(C(F)(F)F)c2)c1NC(=O)c1cccnc1Cl			80.9%	33.3%
Cc1cc(Cl)cc(C(=O)N/N=C\N(C)C)c1NC(=O)c1cccnc1Cl			100%	57.1%
Cc1cc(Cl)cc(C(=O)N/N=C\c2c(Cl)cccc2Cl)c1NC(=O)c1cccnc1Cl			18.2%	15.2%
Cc1cc(Cl)cc(C(=O)N/N=C\c2ccc(F)cc2)c1NC(=O)c1cccnc1Cl			5%	1.1%
Cc1cc(Cl)cc(C(=O)N/N=C\c2ccccc2Cl)c1NC(=O)c1cccnc1Cl			6%	0%

Reference: ChEMBL document CHEMBL3046882, “Synthesis and antibacterial activity against ralstonia solanacearum for novel hydrazone derivatives containing a pyridine moiety” (2012)
